In PMC10065799, “High-throughput profiling of sequence recognition by tyrosine kinases and SH2 domains using bacterial peptide display” (eLife, 2023):
Where two headings read alike, the source gives them in different places.

Key:
Experiment in all cases: pTyr-Var library bacterial peptide display kinase screen (enrichment scores)
[1] = biological target: T1, c-Abl kinase domain (Mus musculus, UniProt P00520); assay type: biochemical;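 also: log2 fold change in enrichment of variant over reference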
T1 sequence (P00520 242-493 limits assumed): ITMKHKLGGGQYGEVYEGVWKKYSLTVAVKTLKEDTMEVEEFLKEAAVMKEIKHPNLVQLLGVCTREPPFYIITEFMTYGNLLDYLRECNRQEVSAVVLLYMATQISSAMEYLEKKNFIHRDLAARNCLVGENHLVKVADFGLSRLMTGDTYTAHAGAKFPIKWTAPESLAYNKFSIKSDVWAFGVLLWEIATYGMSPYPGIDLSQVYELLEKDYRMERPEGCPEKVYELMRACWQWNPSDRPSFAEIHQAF

[2] = biological target: c-Src kinase domain (Homo sapiens, UniProt P12931); assay type: biochemical;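 also: log2 fold change in enrichment of variant over reference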
[3] = test system: Fer kinase domain; assay type: biochemical, mouse; settings: sheet "Fer";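 also: log2 fold change in enrichment of variant over reference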
[4] = test system: EPHB1 kinase domain; assay type: biochemical, human; settings: for Screen: sheet EPHB1, effect of the variant peptide relative to its reference peptide in the pTyr-Var library screen (enrichment scores)
[5] = fig5-data2, sheet "Abl", Screen for the variant/reference peptide pair, pTyr-Var library
[6] = sheet "Src", effect of the variant peptide relative to its reference peptide in the pTyr-Var library screen
[7] = sheet "Abl", effect of variant peptide relative to its reference peptide in pTyr-Var library screen (enrichment)
[8] = sheet "Src", variant peptide versus its reference peptide in the pTyr-Var library screen
[9] = value of the variant peptide against its reference peptide in the pTyr-Var library screen with Fer

AALSAYAPQRP [PTPRN2_Y249_A251P] gave a Screen [1, 5] of -0.5816.
Work on AATTAYSKPKQ [MAP3K7_Y405_R410Q] yielded a Screen [1, 5] of -0.9283.
ACLSLYGGFVE [MVD_Y164_R161L] was tested, and the Screen [2, 6] was -0.5782.
With ADLVQYFMEHH [PTPN11_Y80_E76D_YF] the Screen [1, 5] was 0.02377.
ADRNHYRRFRR [YBX1_Y145_P149R_YF] was tested, and the Screen [1, 7] was -2.647.
AEFGLYRAMVR [VSX2_Y222_G223R_YF] was tested, and the Screen [2, 8] was -2.091 and the Screen [1, 7] was 2.423.
AGIVVYNIIGW [MYH7_Y588_D587V] was tested, and the Screen [2, 8] was 2.236.
With AKAFIYASHIV [ZNF573_Y229_G224A] the Screen ([2]; sheet "Src", effect of the variant peptide against its reference peptide, seen in the pTyr-Var library screen) was 0.3183 and the Screen ([3]; variant peptide relative to its reference peptide, pTyr-Var library screen enrichment) was 0.4356.
Sequence AMGPVYQAAAL [HYOU1_Y421_A419P] has a Screen [2, 6] of 0.5389 and a Screen [3, 9] of 1.97.
AQMAMYFWEMS [TRPM4_Y577_G582S] showed a Screen [2, 8] of -0.06271.
For CSRCFYQLTKL [AR_Y858_R856C], the Screen [3, 9] was 1.959.
Sequence CTHDLYMFMRE [FGFR3_Y724_I726F] has a Screen [2, 6] of 0.09652 and a Screen [4] of 0.1536.
Sequence DAAEDYAEGVC [DHODH_Y194_R199C] has a Screen [1, 5] of -0.7613.
Sequence DCLASYLDKVR [KRT16_Y131_R127C] has a Screen [1, 5] of 1.893.
DDSNPYINVKL [MTHFD1_Y52_L51P] showed a Screen [1, 5] of -0.8391.
Sequence DENWFYTQAAS [RPS19_Y54_R56Q] has a Screen [1, 5] of 0.05995.
DFPGIYSGFDD [POLR1C_Y33_N32I_YF] showed a Screen [2, 8] of 3.694.
DHPSEYAARQL [ANXA13_Y90_R86H] was tested, and the Screen [1, 5] was 0.8208.
Work on DLQDEYDFKRK [STAT1_Y170_C174R] yielded a Screen [1, 7] of -1.312.
For DPLLTYQFPPK [LMNA_Y481_R482Q], the Screen [2, 6] was 1.304.
EFSNQYKATIG [RAB7A_Y37_K32E] was tested, and the Screen [1, 5] was 1.976.
ELQGTYTSLQQ [KIF3C_Y574_R571Q] was tested, and the Screen [2, 6] was 1.278.
With ETEMLYGSARR [PRC1_Y464_P468R] the Screen [2, 8] was -0.8951 and the Screen [3, 9] was -2.34.
In the case of FDKPVYQKTTE [LDLR_Y828_N825K], the Screen [1, 5] is reported as 0.7779.
FEPWVYSLSFE [PRKDC_Y647_F649L_YF] showed a Screen [2, 8] of 0.05044 and a Screen [1, 5] of -0.5163.
In the case of FIGVTYKNKED [PDGFRA_Y993_E996K_YF], the Screen [1, 5] is reported as -0.7207.
With FKEDPYLVVNP [MCM6_Y810_E806K_YF] the Screen [2, 6] was -0.4166 and the Screen [1, 5] was -1.709.
FKEVVYQAMEE [TACC3_Y684_E680K] was tested, and the Screen [2, 8] was -0.2069.
In the case of FLTQHYDAIPQ [ANG_Y38_K41I], the Screen [3, 9] is reported as 3.881.
FQKNVYSEELR [LMNA_Y211_I210V] was tested, and the Screen [2, 6] was -1.452.
With FRAVKYLQMVG [AVPR2_Y117_C112Y_YF] the Screen [1, 5] was 1.48.
For FRDALYKSMVD [PHEX_Y250_F252S_YF], the Screen [1, 5] was 1.216.
Sequence FRQNGYIPGSN [PCDHGB2_Y895_V894G_YF] has a Screen [1, 5] of -0.7593.
FSMGCYEFSLG [HMGCL_Y198_I200F_YF] gave a Screen [2, 6] of -0.3724, a Screen [1, 5] of 1.5 and a Screen [3, 9] of 0.8119.
For FSQQTYFPVSN [ABCD1_Y180_R182P_YF], the Screen [2] was 1.076.
Work on FVPSNYVAEDR [FRK_Y104_I100V_YF] yielded a Screen [1, 5] of 0.1639.
GENTVYAQVFN [LY9_Y603_M602V] showed a Screen [2, 6] of 1.086, a Screen [3, 9] of 0.3094 and a Screen [4] of 0.06415.
GFEEAYSVSKK [PAFAH1B1_Y28_F31S_YF] gave a Screen [2, 8] of -2.622.
Work on GFFDLYGGEKF [PTPN11_Y66_D61G_YF] yielded a Screen [2, 8] of -0.05122.
Work on GFGGGYGGVLT [KRT19_Y65_A60G_YF] yielded a Screen [1, 5] of -0.6696.
GSSKIYFLHAD [TLR5_Y108_P112A] showed a Screen [2, 8] of -1.042.
In the case of HGAKVYIDPFT [EPHB4_Y590_T587A], the Screen [1, 5] is reported as 1.249.
Work on HITQVYGFFDE [PPP2CA_Y127_Q122H_YF] yielded a Screen [2, 8] of 0.5425.
For HLGNQYVNVMN [SLC3A1_Y461_R456H], the “Screen (variant relative to reference peptide, measured in the pTyr-Var library screen)” value ([4]; sheet "EPHB1", variant seq vs reference seq, bacterial peptide display enrichment) was -0.5071.
For HLLRIYFDITD [MMP27_Y307_W304L_YF], the Screen [4] was 0.4409.
IATTIYSGDKI [UGGT2_Y823_A821T] gave a Screen [2, 8] of -1.846.
ICFSDYVEVAD [PHACTR1_Y525_R521C] gave a Screen [1, 5] of 1.249 and a Screen [4] of 0.304.
In the case of ICGVSYDEFRF [CFTR_Y512_F508C_YF], the Screen [2, 6] is reported as -0.6525 and the Screen [3, 9] is reported as -0.3864.
Sequence IGVDSYSVCKR [RPS6KA3_Y433_G431D] has a Screen [1, 5] of 0.006002.
In the case of INITIYGKTFH [EFHC1_Y177_R182H], the Screen [1, 5] is reported as 2.247.
Work on ISNATYKQIGL [FLT1_Y199_E201Q] yielded a Screen [1, 5] of -0.6358.
Work on IVRSPYEDLED [VHL_Y185_L184P] yielded a Screen [1, 7] of 0.8994.
KDQGIYEDFVE [MYL6_Y86_T85I_YF] was tested, and the Screen [2, 8] was 1.232 and the Screen [3, 9] was 1.02.
